The target of assay [1] is T1, mVps29 (Mus musculus, UniProt Q9QZ88).
T1 construct: GST (thrombin site) (N, cleaved yes); made in house; host or cells: E. coli BL21(DE3)
The assay is described as follows: ITC, binding to mVps29. The following applies: ITC 25 °C, pH 7.5; mean of triplicate titrations. The method, then: (§1) All the bacterial constructs were expressed in BL21(DE3) competent cells using standard isopropyl 1-thio-β-D-galactopyranoside induction or autoinduction method as described previously[39],[72],[73]. To obtain the Retromer trimer complex, the GST-tagged Vps29 and Vps35 co-expressed cell pellet were mixed with His-Vps26 and resuspended in lysis buffer containing 50 mM Tris-HCl pH 7.5, 200 mM NaCl, 5% glycerol, 50 μg/ml benzamidine and DNase I before passed through a Constant System TS-Series cell disruptor. […] For all constructs, the lysate was clarified by centrifugation and the supernatant was loaded onto either Talon® resin (Clonetech) or glutathione sepharose (GE healthcare) for initial purification. To obtain the correct stoichiometry ratio of the Retromer complex, both Talon® resin and glutathione sepharose (GE healthcare) were applied. […] The flow-through containing complex was further purified using size-exclusion chromatography (SEC) equilibrated with a buffer containing 50 mM Tris-HCl pH 7.5, 200 mM NaCl, 2 mM β-ME. […] To avoid the non-specific cleavage by the residual proteases such as thrombin, a tablet of protease inhibitor cocktail was added into the complex mixture. To remove the unbound fractions, the complex mixture was further purified using Superose 6 increase 10/300 GL column using the SEC buffer described above.
(§2) All the proteins used for ITC experiments were prepared in buffer containing 50 mM Tris-HCl pH 7.5, 200 mM NaCl, 2 mM β-ME. […] In all cases, the ITC titration sequence consisted of an initial 0.4 μl (not used in data processing) followed by 12 serial injections of 3.22 μl each with 180 s intervals. The resulting titration data were integrated with Malvern software package by fitting and normalized data to a single-site binding model, yielding the thermodynamic parameters Kd, ∆H, ∆G and −T∆S for all binding experiments. The stoichiometry was refined initially, and if the value was close to 1, then N was set to exactly 1.0 for calculation. Data presented are the mean of triplicate titrations for each experiment.

For assay [2], the target named is T1, mVps29. Briefly: Crystal structure of mVPS29–ctVps5_71–80 peptide complex. Conditions: 1.7 Å, two molecules in asymmetric unit. The method, then:
All crystals were grown by the hanging-drop vapor diffusion method at 20 °C. […] Best quality crystals were obtained by mixing 1 µL of protein with 1 µL of well solution containing 40 mM KH2PO4, 16% PEG8000 and 5% glycerol at room temperature. Crystals grew after 13 days were cryoprotected in reservoir solution with additional 16% glycerol. X-ray diffraction data were carried out at the Australian Synchrotron MX2 beamline at 100 K.
Data collected from the Australian Synchrotron were indexed and integrated by AutoXDS and scaled using Aimless (version 0.7.4)[75]. Both structures were solved by molecular replacement using Phaser (version 2.5.6)[76] with native mVps29 structure as the initial model template. Both structures contain two copies of mVps29 in asymmetric unit with the electron density of peptide clearly visible. The refinement was performed using Phenix (version 1.19.2) with inspection of resulting model in Coot (version 0.8.9.2) guided by Fo–Fc difference maps[77]. Molprobity was used to evaluate the quality geometry of the refined structure. Molecular figures were generated using PyMOL (version 2.5.5) and structural comparison was performed using DALI and Foldseek[79],[80]. Sequence conservation was mapped on the structure with ConSurf server.

The target of the next assay is ctRetromer (Thermochaetoides thermophila, UniProt G0RZB5+G0S709). The assay is described as follows: ITC, binding to ctRetromer. Conditions: ITC 25 °C, pH 7.5, 200 mM NaCl. On the set-up: species or system Chaetomium thermophilum. The method, then:
as §1
In brief, the clarified lysate was loaded onto glutathione sepharose (GE healthcare) and eluted using elution buffer containing 50 mM Tris-HCl pH 7.5, 200 mM NaCl, 5% glycerol, 20 mM glutathione reduced and 50 μg/ml benzamidine. The flow-through was further purified using SEC as the final purification step. To avoid the degradation, the constructs containing N-terminal disordered parts of Vps5 and Vps17 were used in fresh and experiments were finished within 3 days after purification.
as §2
(Isothermal titration calorimetry measures the heat released or taken up as one component is titrated into another.)

Where no end group is shown, it is not given here.

ctRetromer, sequence (G0RZB5 entry or part of it): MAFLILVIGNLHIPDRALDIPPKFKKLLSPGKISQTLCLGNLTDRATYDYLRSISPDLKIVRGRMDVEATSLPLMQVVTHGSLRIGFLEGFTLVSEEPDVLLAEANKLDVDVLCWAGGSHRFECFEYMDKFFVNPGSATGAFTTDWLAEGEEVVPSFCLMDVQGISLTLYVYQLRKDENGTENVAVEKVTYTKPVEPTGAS
ctRetromer, sequence (G0S709 entry or part of it): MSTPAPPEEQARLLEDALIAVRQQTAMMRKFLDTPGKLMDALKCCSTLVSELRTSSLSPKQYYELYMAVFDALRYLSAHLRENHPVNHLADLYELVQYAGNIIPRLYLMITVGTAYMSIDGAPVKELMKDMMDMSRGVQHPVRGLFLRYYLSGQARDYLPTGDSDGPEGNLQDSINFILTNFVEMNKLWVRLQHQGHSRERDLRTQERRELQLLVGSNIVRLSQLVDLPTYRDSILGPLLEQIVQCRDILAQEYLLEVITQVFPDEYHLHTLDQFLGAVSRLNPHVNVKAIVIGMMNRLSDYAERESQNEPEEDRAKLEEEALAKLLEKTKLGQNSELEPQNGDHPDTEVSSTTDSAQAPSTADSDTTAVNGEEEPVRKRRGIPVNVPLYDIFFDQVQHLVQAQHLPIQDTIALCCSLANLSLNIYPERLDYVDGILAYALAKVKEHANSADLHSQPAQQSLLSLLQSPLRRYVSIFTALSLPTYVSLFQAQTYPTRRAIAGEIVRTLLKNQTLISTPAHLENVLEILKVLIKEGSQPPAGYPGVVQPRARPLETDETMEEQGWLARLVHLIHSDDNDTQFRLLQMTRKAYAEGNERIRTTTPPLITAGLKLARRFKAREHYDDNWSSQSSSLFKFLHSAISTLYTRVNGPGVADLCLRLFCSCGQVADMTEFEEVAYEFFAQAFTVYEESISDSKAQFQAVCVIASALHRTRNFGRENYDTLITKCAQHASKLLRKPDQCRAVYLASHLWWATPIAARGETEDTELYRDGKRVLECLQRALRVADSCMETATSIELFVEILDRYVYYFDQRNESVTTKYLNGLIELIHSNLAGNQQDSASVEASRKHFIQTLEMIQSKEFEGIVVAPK
ctRetromer, sequence (G0S0E6 entry or part of it, further chain): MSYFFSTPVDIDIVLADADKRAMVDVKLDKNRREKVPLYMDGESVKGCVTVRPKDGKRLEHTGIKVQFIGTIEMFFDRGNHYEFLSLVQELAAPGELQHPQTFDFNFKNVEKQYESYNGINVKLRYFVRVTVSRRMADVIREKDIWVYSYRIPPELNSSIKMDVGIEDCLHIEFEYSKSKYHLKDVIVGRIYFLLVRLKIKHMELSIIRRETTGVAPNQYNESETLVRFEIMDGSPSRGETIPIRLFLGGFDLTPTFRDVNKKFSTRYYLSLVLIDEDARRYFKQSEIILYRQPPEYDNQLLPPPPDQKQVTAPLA

DDPLGPLGA [ctVps5_71–80 peptide]: at mVps29 [1], the ΔG was -5.80 ± 0.10 kcal/mol and the ΔH is -8.00 ± 1.10 kcal/mol. Also, the “binding site on VPS29” value on mVps29 [2] is given as “binds to the conserved hydrophobic groove of VPS29”. In addition, at ctRetromer, the “binding to ctRetromer” value is reported as “very weak binding”.

For the origin of these results see publication PMC12000511, “Molecular basis for the assembly of the Vps5-Vps17 SNX-BAR proteins with Retromer” (Nature Communications, 2025).
